Data as given in patent US9546401B2, “Assays and methods for selecting a treatment regimen for a subject with depression” (The General Hospital Corporation, priority 2011, dated 2017).
Read-outs that look alike come from different tables or passages of the source.

Test system: MDD patients carrying the indicated biomarkers
Method: Folate levels are classified as either low (<=2.5 ng/ml) or normal; and homocysteine levels as either normal or elevated (>=[…]). The presence or absence of at least one […] allele for the MTHFR gene are entered as a dichotomous variable (present or absent). […] Using folate as an example predicator, the presence or absence of a low serum-folate level along with treatment assignment can be entered in a 2×2, factorial ANOVA, using depression improvement scores (baseline minus endpoint HAM-D-17 scores) as the dependant variable. […] Similar analyses (i.e. separate 2×2 ANOVA's) can be performed substituting the presence of low folate levels for the presence of other predictors as described herein. Similarly, the effect of other predictors can be indicated by the interaction term representing the potential modulating influence of those variables.
The efficacy effect is determined by measuring the mean change in the HAMD-17 score and HAMD-28 score by the end of Phase I and Phase II, as compared to the baseline.

[1] = Phase II, BMI < 30 kg/m^2 and HNE-His < median
[2] = Phase II, BMI < 30 kg/m^2 and SAM/SAH >= median
[3] = Phase II, BMI >= 30 kg/m^2 and HNE-His >= median
[4] = Phase II, BMI*treat (interaction of BMI with the treatment)
[5] = Phase II, MTHFR 677 CC and BMI < 30 kg/m^2
[6] = Phase II, MTHFR 677 CT or TT and BMI >= 30 kg/m^2
[7] = Phase II, MTHFR 677 CT or TT and HNE-His >= median
[8] = Phase II, MTR 2756 AA and BMI < 30 kg/m^2
[9] = Phase II, MTR 2756 AA and HNE-His < median
[10] = Phase II, MTR 2756 AA and MTRR 66 AA
[11] = Phase II, MTR 2756 AA and MTRR 66 AA and SAM/SAH >= median
[12] = Phase II, MTR 2756 AA and SAM/SAH >= median
[13] = Phase II, MTR 2756 AG or GG and BMI >= 30 kg/m^2
[14] = Phase II, MTR 2756 AG or GG and MTRR 66 AG or GG
[15] = Phase II, MTR 2756 AG or GG and MTRR 66 AG or GG and HNE-His >= median
[16] = Phase II, MTRR 66 AA and SAM/SAH >= median
[17] = Phase II, MTRR 66 AG or GG and HNE-His >= median
[18] = Phase II, SAM/SAH < median and HNE-His >= median
[19] = Phase II, SAM/SAH >= median and HNE-His < median
[20] = Pooled phases, 25 =< BMI < 30 kg/m^2

Question: `CN1c2c(nc(N)[nH]c2=O)NC[C@@H]1CNc1ccc(C(=O)N[C@@H](CCC(=O)O)C(=O)O)cc1` [6(S)-5-MTHF, 6(S)-5-methyltetrahydrofolate] was tested. Which “Effect on change in HAMD-28 score” value (Phase II, BMI < 25) did it give?
Answer: −2.300

Question: What about the “Effect on change in HAMD-17 score” value [1] of the same compound?
Answer: 3.667

Question: What about the “Effect on change in HAMD-28 score” value [1] of the same compound?
Answer: 1.833

Question: What about the “Effect on change in HAMD-17 score” value [2] of the same compound?
Answer: 1.500

Question: And the “Effect on change in HAMD-28 score” value [2]?
Answer: 2.500

Question: What about the “Effect on change in HAMD-17 score” value (Phase II, BMI >= 30 kg/m^2) of the same compound?
Answer: −3.009

Question: What about the “Effect on change in HAMD-28 score” value (Phase II, BMI >= 30 kg/m^2) of the same compound?
Answer: −3.245

Question: What about the “Effect on change in HAMD-17 score” value [3] of the same compound?
Answer: −4.233

Question: And the “Effect on change in HAMD-28 score” value [3]?
Answer: −4.933

Question: And the “Effect on change in HAMD-17 score” value (Phase II, BMI >= 30 kg/m^2 and SAM/SAH < median)?
Answer: −9.200

Question: What about the “Effect on change in HAMD-28 score” value (Phase II, BMI >= 30 kg/m^2 and SAM/SAH < median = 2.71 (plasma)) of the same compound?
Answer: −10.350

Question: What about the “Effect on change in HAMD-17 score” value [4] of the same compound?
Answer: 0.113

Question: What about the “Effect on change in HAMD-28 score” value [4] of the same compound?
Answer: 0.082

Question: And the “Effect on change in HAMD-17 score” value [5]?
Answer: −2.267

Question: And the “Effect on change in HAMD-28 score” value [5]?
Answer: −3.000

Question: What about the “Effect on change in HAMD-17 score” value (Phase II, MTHFR 677 CC and HNE-His < median) of the same compound?
Answer: −0.857

Question: And the “Effect on change in HAMD-28 score” value (Phase II, MTHFR 677 CC and HNE-His < median = 3.28 (plasma))?
Answer: −0.536

Question: What about the “Effect on change in HAMD-17 score” value [6] of the same compound?
Answer: −7.333

Question: What about the “Effect on change in HAMD-28 score” value [6] of the same compound?
Answer: −8.667

Question: What about the “Effect on change in HAMD-17 score” value [7] of the same compound?
Answer: −7.500

Question: And the “Effect on change in HAMD-28 score” value [7]?
Answer: −7.500

Question: What about the “Effect on change in HAMD-17 score” value (Phase II, MTR 2756 AA) of the same compound?
Answer: −0.427

Question: And the “Effect on change in HAMD-28 score” value (Phase II, MTR 2756 AA)?
Answer: −0.446

Question: What about the “Effect on change in HAMD-17 score” value [8] of the same compound?
Answer: 1.167

Question: What about the “Effect on change in HAMD-28 score” value [8] of the same compound?
Answer: 0.917

Question: What about the “Effect on change in HAMD-17 score” value [9] of the same compound?
Answer: 0.300

Question: What about the “Effect on change in HAMD-28 score” value [9] of the same compound?
Answer: −0.125

Question: And the “Effect on change in HAMD-17 score” value [10]?
Answer: −8.000

Question: And the “Effect on change in HAMD-28 score” value [10]?
Answer: −8.000

Question: What about the “Effect on change in HAMD-17 score” value (Phase II, MTR 2756 AA and MTRR 66 AA and HNE-His < median) of the same compound?
Answer: −8.667

Question: And the “Effect on change in HAMD-28 score” value (Phase II, MTR 2756 AA and MTRR 66 AA and HNE-His < median = 3.28 (plasma))?
Answer: −9.000

Question: And the “Effect on change in HAMD-17 score” value [11]?
Answer: −7.000

Question: And the “Effect on change in HAMD-28 score” value [11]?
Answer: −7.500

Question: What about the “Effect on change in HAMD-17 score” value [12] of the same compound?
Answer: 1.971

Question: What about the “Effect on change in HAMD-28 score” value [12] of the same compound?
Answer: 2.000

Question: What about the “Effect on change in HAMD-17 score” value [13] of the same compound?
Answer: −12.167

Question: And the “Effect on change in HAMD-28 score” value [13]?
Answer: −13.000

Question: And the “Effect on change in HAMD-17 score” value (Phase II, MTR 2756 AG or GG and HNE-His >= median)?
Answer: −8.417

Question: What about the “Effect on change in HAMD-28 score” value (Phase II, MTR 2756 AG or GG and HNE-His >= median = 3.28 (plasma)) of the same compound?
Answer: −9.500

Question: What about the “Effect on change in HAMD-17 score” value [14] of the same compound?
Answer: −4.667

Question: And the “Effect on change in HAMD-28 score” value [14]?
Answer: −6.583

Question: What about the “Effect on change in HAMD-17 score” value [15] of the same compound?
Answer: −11.000

Question: And the “Effect on change in HAMD-28 score” value [15]?
Answer: −12.000

Question: What about the “Effect on change in HAMD-17 score” value (Phase II, MTR 2756 AG or GG and MTRR 66 AG or GG and SAM/SAH < median) of the same compound?
Answer: −6.500

Question: And the “Effect on change in HAMD-28 score” value (Phase II, MTR 2756 AG or GG and MTRR 66 AG or GG and SAM/SAH < median = 2.71 (plasma))?
Answer: −10.500

Question: What about the “Effect on change in HAMD-17 score” value (Phase II, MTR 2756 AG or GG and SAM/SAH < median) of the same compound?
Answer: −2.500

Question: And the “Effect on change in HAMD-28 score” value (Phase II, MTR 2756 AG or GG and SAM/SAH < median = 2.71 (plasma))?
Answer: −7.500

Question: What about the “Effect on change in HAMD-17 score” value (Phase II, MTR 2756 AG/GG) of the same compound?
Answer: −3.600

Question: And the “Effect on change in HAMD-28 score” value (Phase II, MTR 2756 AG/GG)?
Answer: −5.300

Question: And the “Effect on change in HAMD-17 score” value (Phase II, MTRR 66 AA and HNE-His < median)?
Answer: −1.667

Question: What about the “Effect on change in HAMD-28 score” value (Phase II, MTRR 66 AA and HNE-His < median = 3.28 (plasma)) of the same compound?
Answer: −2.000

Question: What about the “Effect on change in HAMD-17 score” value [16] of the same compound?
Answer: −3.000

Question: What about the “Effect on change in HAMD-28 score” value [16] of the same compound?
Answer: −3.333

Question: What about the “Effect on change in HAMD-17 score” value [17] of the same compound?
Answer: −3.500

Question: What about the “Effect on change in HAMD-28 score” value [17] of the same compound?
Answer: −4.071

Question: What about the “Effect on change in HAMD-17 score” value (Phase II, MTRR 66 AG or GG and SAM/SAH < median) of the same compound?
Answer: −6.190

Question: And the “Effect on change in HAMD-28 score” value (Phase II, MTRR 66 AG or GG and SAM/SAH < median = 2.71 (plasma))?
Answer: −7.381

Question: And the “Effect on change in HAMD-17 score” value [18]?
Answer: −9.000

Question: What about the “Effect on change in HAMD-28 score” value [18] of the same compound?
Answer: −12.000

Question: And the “Effect on change in HAMD-17 score” value [19]?
Answer: 4.000

Question: What about the “Effect on change in HAMD-28 score” value [19] of the same compound?
Answer: 4.500

Question: What about the “Effect on change in HAMD-28 score” value (Phase II, SAM/SAH*treat, first line under HAMD28) of the same compound?
Answer: 1.483

Question: And the “Effect on change in HAMD-17 score” value (Phase II, baseHAMD-17*treat (interaction of base HAMD-17 with the treatment))?
Answer: −0.249

Question: And the “Effect on change in HAMD-17 score” value [20]?
Answer: 3.331

Question: What about the “Effect on change in HAMD-28 score” value [20] of the same compound?
Answer: 2.054

Question: And the “Effect on change in HAMD-17 score” value (Pooled phases, BMI < 25)?
Answer: −1.248
